Test results reported in patent US20040214803A1, “Use of vitamin d3 analogue for the treatment of autoimmune diabetes” (priority 2001, published 2004).

Legend:
Assay type in all cases: in vivo, mouse
aortic allografts = test: Aortic allograft histology: inflammatory cell infiltrate; conditions: 0.03 μg/kg p.o., 60 days after transplantation
Experimental: Histology: Segments of aorta grafts were snap-frozen in Tissue Tek (Miles Laboratories, Elkhart, Ind.), and stored at −80° C. Frozen sections, 5 μm thick, were stained with hematoxylin and eosin, or with biotinylated mAbs against CD4, CD8, B220, CD11b or CD11c (all purchased from PharMingen, San Diego, Calif.), followed by streptavidin-peroxidase conjugate. 3-amino-9-ethylcarbazole (DAKO, Carpenteria, Calif.) was used as chromogen, and hematoxylin as a counterstain. The effect of Compound A in preventing chronic rejection was evaluated using the aortic graft model in the mouse. Graft combinations were syngeneic or allogeneic. In allogeneic combinations, recipient mice were treated orally with vehicle alone or containing Compound A (0.03 μg/kg) fives times per week, from day 0 to day 30 relative to the time of grafting. Aortic grafts were analyzed 60 days after transplantation.

CD4+ T cells = test: Flow cytometric analysis of surface molecules on CD4+ cells from treated NOD mice
Experimental: Single-cell suspensions of pancreas-infiltrating, spleen or lymph node cells were incubated with anti-CD4 mAb-coated Microbeads (Miltenyi Biotec) and applied onto Mini-MACS columns (Miltenyi Biotec). Stainings were performed in the presence of 100 μg/ml mouse IgG using the following mAbs, all from PharMingen: CyChrome-labeled Streptavidin, FITC-labeled anti-CD4 (L3T4), PE-labeled anti-CD45RB (16A), PE-labeled anti-CD62L (MEL-14), PE-labeled anti-CD38 (rat IgG2a), FITC-labeled anti-CD69 (H1.2F3), and biotinylated anti-CD25 (7D4). Cells were analyzed with a FACScan flow cytometer equipped with CellQuest software (Becton Dickinson, Mountain View, Calif.).
Therefore, we analyzed the frequency of CD4^+ CD25^+ cells in 1,25-dihydroxy-16,23Z-diene-26,27-hexafluoro-19-nor vitamin D3-treated NOD mice. No difference was found in the percentage of splenic CD4^+ cells expressing CD25, CD38, CD69, CD62L and CD45RB in 20 week-old Compound A or vehicle-treated and untreated 8 week-old NOD mice (FIG. 6A).
FIG. 6. (page 6/9) Compound A treatment enhances the frequency of CD4^+ CD25^+ cells. Positively selected CD4^+ T cells were stained with mAbs specific for the indicated surface molecules and analyzed by flow cytometry. Acquisition was performed on CD4^+ cells. Bars represent the percent of spleen and lymph node CD4^+ T cells expressing the indicated surface molecules from untreated 8 week-old (□) or 20 week-old NOD mice treated 5×/week from 8 to 16 weeks of age with vehicle ( ? ) or with 0.03 μg/Kg Compound A (▪). Data are presented as mean ±SE of three separate experiments. The P values were calculated by Mann-Whitney U test (* indicates P<0.05 vs. 8 week-old NOD mice).

CD4+ cells = test: Proliferation and IFN-γ secretion of CD4+ cells following TCR ligation
Experimental: Single cell suspensions from pancreatic lymph nodes or spleen were incubated with anti-CD4 mab-coated Microbeads (Miltenyi Biotec) and applied onto Mini-MACS columns (Miltenyi Biotec). Purified CD4^+ cells (6×10^5/well) were cultured for 48 h in round-bottom 96-well plates (Costar) pre-coated with 3 μg/ml purified anti-TCR mAb (ATCC HB 218; American Type Culture Collection, Manassas, Va.) with or without 100 U/ml IL-2 and/or 10 μg/ml anti-CD28 mAb. Cultures were performed in synthetic HL-1 medium (Ventrex Laboratories, Portland, Me.) supplemented with 2 mM L-glutamine and 50 μg/ml gentamicin (Sigma). To measure cell proliferation, cultures were pulsed 8 h before harvesting with 1 μCi [^3H]TdR ([…]; Radiochemical Center, Amersham, U.K.). Incorporation of [^3H]TdR was measured by liquid scintillation spectrometry. Alternatively, splenic or pancreatic lymph node CD4^+CD25^+ and CD4^+CD25^− cells were sorted with MultiSort Kit (Miltenyi Biotec, Auburn, Calif.).
Cytokines were quantified by two-sites ELISA. IFN-γ was determined using paired mAb from PharMingen (San Diego, Calif.). For capture, the mAb was AN-18.17.24. Samples were titrated and incubated overnight at 4° C. To detect bound IFN-γ plates were then incubated with biotinylated XMG1.2 mAb. […] The plates were washed again and incubated with the developing substrate p-nitrophenylphosphate disodium (Sigma) in diethanolamine buffer (pH 9.6; 100 μl/well). The reaction was stopped by adding 50 μl/well NaOH 3N, and absorbance was read at 405 nm. ELISA for IL-12p75 was performed as described (Gately, M. K., et al., Current Protocols Immunol. 1995, 3, 15:6.16.11-16.16.15). Cytokines were quantified from two to three titration points using standard curves generated by purified recombinant mouse cytokines and results expressed as cytokine concentration in ng or pg/ml. Detection limits were 15 pg/ml for both cytokines.
FIG. 5. (page 5/9) Proliferation and IFN-γ secretion following TCR ligation. Splenic and pancreatic lymph node CD4^+ cells from untreated 8 week-old (□) or 20 week-old NOD mice treated 5×/week from 8 to 16 weeks of age with vehicle (□) or with 0.03 μg/KgCompound A (▪) were positively selected and stimulated (6×10^5 cells/well) with plate-bound anti-TCR mAb (10 μg/ml) in the presence of 100 U/ml IL-2 and/or 5 μg/ml anti-CD28 mAb. A. Cells were pulsed with [^3H]-thymidine during the last 8 hrs of a 48 h culture. Data are presented as mean ±SE of thymidine incorporation (Δ cpm) from triplicate cultures, background values were 790±100 cpm. B. After 48 h of culture, IFN-γ secretion was quantified by ELISA. Results, presented as mean ±SE of triplicate cultures, are from one representative experiment out of four performed.

[1] = pancreatic lymph node CD4+ cells
[2] = pancreatic lymph node CD4+ cells from 20 week-old mice

## C[C@H](C/C=C\C(O)(C(F)(F)F)C(F)(F)F)C1=CC[C@H]2/C(=C/C=C3C[C@@H](O)C[C@H](O)C3)CCC[C@]12C [Compound A, 1,25-dihydroxy-16,23Z-diene-26,27-hexafluoro-19-nor vitamin D3]
Aortic allografts
  CD4, CD8 and B cells in the grafts: complete absence
Aortic allografts; vs vehicle
  number of macrophages and dendritic cells in the grafts: profoundly reduced number
CD4+ T cells; 20 week-old mice, vs vehicle-treated and untreated 8 week-old
  percentage of splenic CD4+ cells expressing CD25, CD38, CD69, CD62L and CD45RB: No difference
CD4+ T cells; pancreatic lymph node CD4+ cells, 8 week-old 75.9±0.5%, vehicle 74.2±1.6
  percentage of CD45RBhigh: 65.1±0.3%
CD4+ T cells; pancreatic lymph node cells, 8 week-old 11.6±0.1%, vehicle 13.0±0.1
  percentage of CD4+ CD25+: 20.1±0.1%
CD4+ T cells; pancreatic lymph node cells, 8 week-old 11.8±0.1%, vehicle 10.6±1.0
  percentage of CD4+ CD38+: 25.2±0.2%
CD4+ T cells; pancreatic lymph node cells, 8 week-old 12.65±0.43%, vehicle 34.8±0.01
  percentage of CD45RBlow CD4+ cells: 24.1±0.22%
CD4+ T cells; pancreatic lymph node, 8 week-old 8%, vehicle 7%
  double positive CD25+ CD38+ CD4+ cells: 17%
CD4+ cells; [1]
  IFN-γ secretion after addition of IL-2 and/or anti-CD28 mAb: restored
  proliferation after addition of IL-2, alone or together with anti-CD28 mAb: not restored
CD4+ cells; [2]
  proliferation to insolubilized anti-TCR mAb vs age-matched controls: four times less
  proliferation to insolubilized anti-TCR mAb vs cells from 8 week-old mice: 10 times less
